Results: US11612604B2, “Methods of treating cancer with PLK4 inhibitors” (LUDWIG INSTITUTE FOR CANCER RESEARCH LTD, priority 2017, dated 2023)

target: T1, PLK4 (Homo sapiens, UniProt O00444); assay: Activity (IC50) of the Table 1 compounds as PLK4 inhibitors; type: biochemical; details: Table 1, IC50 class
T1 sequence (O00444 1-970): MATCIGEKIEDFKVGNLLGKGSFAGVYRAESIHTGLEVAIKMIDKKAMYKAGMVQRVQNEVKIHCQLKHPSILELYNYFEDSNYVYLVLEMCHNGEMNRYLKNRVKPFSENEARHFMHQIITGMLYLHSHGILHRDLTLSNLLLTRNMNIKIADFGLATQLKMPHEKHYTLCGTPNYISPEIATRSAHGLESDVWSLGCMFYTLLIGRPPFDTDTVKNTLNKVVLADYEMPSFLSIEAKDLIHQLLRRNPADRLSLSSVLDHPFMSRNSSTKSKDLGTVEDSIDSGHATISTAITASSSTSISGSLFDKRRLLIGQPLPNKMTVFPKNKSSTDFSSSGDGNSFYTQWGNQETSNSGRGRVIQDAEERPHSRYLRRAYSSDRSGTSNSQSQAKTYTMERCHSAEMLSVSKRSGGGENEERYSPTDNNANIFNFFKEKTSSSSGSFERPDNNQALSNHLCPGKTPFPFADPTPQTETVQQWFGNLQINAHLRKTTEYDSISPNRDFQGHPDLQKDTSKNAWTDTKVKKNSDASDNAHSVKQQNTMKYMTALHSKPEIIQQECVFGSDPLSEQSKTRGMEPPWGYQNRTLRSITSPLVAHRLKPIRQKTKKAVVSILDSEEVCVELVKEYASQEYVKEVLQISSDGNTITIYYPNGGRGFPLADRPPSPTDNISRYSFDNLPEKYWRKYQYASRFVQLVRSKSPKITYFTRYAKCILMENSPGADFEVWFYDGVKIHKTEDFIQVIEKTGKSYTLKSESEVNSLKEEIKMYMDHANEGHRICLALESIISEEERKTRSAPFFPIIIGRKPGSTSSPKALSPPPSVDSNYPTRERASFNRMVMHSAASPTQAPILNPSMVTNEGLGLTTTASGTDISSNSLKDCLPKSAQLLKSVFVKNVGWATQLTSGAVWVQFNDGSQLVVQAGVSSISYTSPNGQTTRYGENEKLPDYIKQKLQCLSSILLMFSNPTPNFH

SMILES	IC50 [nM]
COCCNc1nc(Sc2ccc(NC(=O)C3CC3)cc2)nc(Nc2cc(C)[nH]n2)c1OC	< 100
COc1c(Nc2cc(C)[nH]n2)nc(Sc2ccc(S(=O)(=O)C(F)(F)c3c(F)c(F)cc(F)c3F)cc2F)nc1N1CCOCC1	< 100
COc1c(Nc2cc(C)[nH]n2)nc(Sc2ccc(NC(C)=O)cc2)nc1N1CC2CCC(C1)N2CCN(C)C	< 100
COc1c(Nc2cc(C)[nH]n2)nc(Sc2ccc(S(=O)(=O)C3(c4cccc([N+](=O)[O-])c4F)CC3)cc2F)nc1N1CCC(CC(N)=O)CC1	< 100
COc1c(Nc2cc(C)[nH]n2)nc(Sc2ccc(S(=O)(=O)C(C)(C)c3c(F)c(F)c(C)c(F)c3F)cc2F)nc1N1CCOCC1	< 100
COc1c(Nc2cc(C)[nH]n2)nc(Sc2ccc(NC(C)=O)cc2)nc1N1CCN(CCN(C)C)CC1C (stereo not shown)	< 100
CCc1cc(Nc2nc(SC)nc(N3CCN(CCN(C)C)CC3)c2OC)n[nH]1	< 100
CC(=O)Nc1ccc(Sc2nc(Nc3cc(C)[nH]n3)c(C)c(N3CCCCC3)n2)cc1	< 100
Cc1cc(Nc2nc(Sc3ccccc3)nc(N3CCOCC3)c2C)n[nH]1	< 100
COc1c(Nc2cc(C)[nH]n2)nc(Sc2ccc(S(=O)(=O)C(C)(C)c3cccc([N+](=O)[O-])c3)cc2F)nc1N1CCC(CCNC(C)C(F)(F)F)CC1 (stereo not shown)	< 100
CCCC(=O)Nc1ccc(Sc2nc(Nc3cc(C)[nH]n3)c(C)c(N3CCN(C)CC3)n2)cc1	< 100
COc1c(Nc2cc(C)[nH]n2)nc(Sc2ccc(S(=O)(=O)C(C)(C)c3c(F)c(F)c(C)c(F)c3F)cc2F)nc1N1CCN(CCN(C)C)CC1	< 100
CC(=O)Nc1ccc(Sc2nc(Nc3cc(C)[nH]n3)c(C)c(N3CCC(N(C)C)CC3)n2)cc1	< 100
COc1c(Nc2cc(C)[nH]n2)nc(Sc2ccc(CCc3cccc([N+](=O)[O-])c3F)cc2F)nc1N1CCOCC1	< 100
CCOc1c(Nc2cc(C)[nH]n2)nc(Sc2ccc(NC(=O)C3CC3)cc2)nc1N1CCNCC1	< 100
COc1c(Nc2cc(C)[nH]n2)nc(Sc2ccc(NC(C)=O)cc2)nc1NC1CCN(C)CC1	< 100
COc1c(Nc2cc(C)[nH]n2)nc(Sc2ccc(NC(C)=O)cc2)nc1C1=CCN(CCN(C)C)CC1	< 100
CC(=O)Nc1ccc(Sc2nc(Nc3cc(C)[nH]n3)c(C)c(N3CCCCC3C)n2)cc1 (stereo not shown)	< 100
Cc1cc(Nc2nc(Sc3ccc(NC(=O)C4CC4)cc3)nc(N(C)CCN(C)C)c2C)n[nH]1	< 100
CSc1nc(Nc2cc(C)[nH]n2)c(C)c(N(C)C(C)C)n1	< 100
Cc1cc(Nc2nc(Sc3ccc(NC(=O)C4CC4)cc3)nc(N3CCOCC3)c2C)n[nH]1	< 100
CNC(=O)Nc1ccc(Sc2nc(Nc3cc(C)[nH]n3)c(C)c(N3CCOCC3)n2)cc1	< 100
COc1c(Nc2cc(C)[nH]n2)nc(Sc2ccc(NC(C)=O)cc2)nc1N1CCOC[C@@H]1C	< 100
COc1c(Nc2cc(C)[nH]n2)nc(Sc2ccc(S(=O)(=O)C(C)(C)c3cccc([N+](=O)[O-])c3F)cc2F)nc1N1CCC(N(C)C(C)=O)CC1	< 100
COc1c(Nc2cc(C)[nH]n2)nc(Sc2ccc(C#Cc3cccc([N+](=O)[O-])c3F)cc2F)nc1N1CCOCC1	< 100
Cc1cc(Nc2nc(Sc3ccc(NC(=O)C4CC4)cc3)nc(NC(C)C)c2C)n[nH]1	< 100
COc1c(Nc2cc(C)[nH]n2)nc(Sc2ccc(S(=O)(=O)C(C)(C)c3cccc(Cl)c3F)cc2F)nc1N1CCC(CCN(C)C)CC1	< 100
COc1c(Nc2cc(C)[nH]n2)nc(Sc2ccc(S(=O)(=O)C(C)(C)c3cccc([N+](=O)[O-])c3F)cc2F)nc1N1CCC(NC(=O)C(F)(F)F)CC1	< 100

Other lines, results leading:

IC50 [nM]	SMILES
< 100	COc1cccc(CS(=O)(=O)c2ccc(Sc3nc(Nc4cc(C)[nH]n4)c(OC)c(N4CCN(CCN(C)C)CC4)n3)cc2)c1
< 100	COc1c(Nc2cc(C)[nH]n2)nc(Sc2ccc(S(=O)(=O)Cc3cccc(F)c3F)cc2F)nc1N1CCOCC1
< 100	COc1c(Nc2cc(C)[nH]n2)nc(Sc2ccc(NC(=O)C3CC3)cc2)nc1N1CCN(C2CCN(C)CC2)CC1
< 100	COc1c(Nc2cc(C)[nH]n2)nc(Sc2ccc(S(=O)(=O)Cc3ccncc3)cc2)nc1N1CCN(CCN(C)C)CC1
< 100	COc1c(Nc2cc(C)[nH]n2)nc(Sc2ccc(S(=O)(=O)Cc3cccc(F)c3)cc2)nc1N1CCN(CCN(C)C)CC1
< 100	CNCCN1CCN(c2nc(Sc3ccc(NC(=O)C4CC4)cc3)nc(Nc3cc(C)[nH]n3)c2OC)CC1
< 100	COc1c(Nc2cc(C)[nH]n2)nc(Sc2ccc(S(=O)(=O)Cc3cccc([N+](=O)[O-])c3)cc2F)nc1N1CCOC[C@@H]1C
< 100	CCS(=O)(=O)c1ccc(Sc2nc(Nc3cc(C)[nH]n3)c(OC)c(N3CCN(CCN(C)C)CC3)n2)c(Cl)c1
< 100	COc1c(Nc2cc(C)[nH]n2)nc(Sc2ccc(S(=O)(=O)Cc3cccc([N+](=O)[O-])c3)cc2)nc1N1CCOC[C@@H]1CO
< 100	COc1c(Nc2cc(C)[nH]n2)nc(Sc2ccc(NC(C)=O)cc2)nc1N1CCC(F)CC1
< 100	COc1c(Nc2cc(C)[nH]n2)nc(Sc2ccc(S(=O)(=O)Cc3ccccc3)cc2)nc1N1CCN(CCN2C3CCCC2CCC3)CC1
< 100	COc1c(Nc2cc(C)[nH]n2)nc(Sc2ccc(S(=O)(=O)Cc3ccccc3)cc2)nc1N1CCN(C)CC1
< 100	CCS(=O)(=O)c1ccc(Sc2nc(Nc3cc(C)[nH]n3)c(OC)c(N3CCN(CCN(C)C)CC3)n2)c(F)c1
< 100	CCOc1c(Nc2cc(C)[nH]n2)nc(Sc2ccc(S(=O)(=O)Cc3ccccc3)cc2)nc1N1CCN(CCN2C3CCCC2CC3)CC1
< 100	COC(=O)c1ccccc1CS(=O)(=O)c1ccc(Sc2nc(Nc3cc(C)[nH]n3)c(OC)c(N3CCN(CCN(C)C)CC3)n2)cc1
< 100	COc1c(Nc2cc(C)[nH]n2)nc(Sc2ccc(NC(C)=O)cc2)nc1N1CCC(C(=O)N(C)C)CC1
< 100	COc1c(Nc2cc(C)[nH]n2)nc(Sc2ccc(S(=O)(=O)Cc3ccccc3)cc2)nc1N1CCN(CCN2CCCCCC2)CC1
< 100	COc1c(Nc2cc(C)[nH]n2)nc(Sc2ccc(S(=O)(=O)Cc3ccccc3)cc2)nc1N1CCN(Cc2ccccc2)CC1
< 100	COCCC(=O)N1CCN(c2nc(Sc3ccc(NC(=O)C4CC4)cc3)nc(Nc3cc(C)[nH]n3)c2OC)CC1
< 100	COc1c(Nc2cc(C)[nH]n2)nc(Sc2ccc(NC(C)=O)cc2)nc1N1CCN(CCN2CCOCC2)CC1

IC50 [nM]	SMILES
< 100	COc1cccc(CS(=O)(=O)c2ccc(Sc3nc(Nc4cc(C)[nH]n4)c(OC)c(N4CCN(CCN(C)Cc5ccccc5)CC4)n3)cc2)c1
< 100	COc1c(Nc2cc(C)[nH]n2)nc(Sc2ccc(NC(C)=O)cc2)nc1N1CC2CCC(C1)N2CCN1CCCCCCC1
< 100	CCS(=O)(=O)c1ccc(Sc2nc(Nc3cc(C)[nH]n3)c(OC)c(N3CCN(C)CC3)n2)cc1
< 100	COc1c(Nc2cc(C)[nH]n2)nc(Sc2ccc(S(=O)(=O)Cc3cccc(C(=O)N(C)C)c3F)cc2F)nc1N1CCOCC1
< 100	COc1c(Nc2cc(C)[nH]n2)nc(Sc2ccc(S(=O)(=O)CCO)cc2)nc1N1CCN(CCN(C)C)CC1
< 100	COc1c(Nc2cc(C)[nH]n2)nc(Sc2ccc(S(=O)(=O)Cc3cccc([N+](=O)[O-])c3)cc2)nc1N1CCOC[C@H]1C
< 100	COc1c(Nc2cc(C)[nH]n2)nc(Sc2ccc(S(C)(=O)=O)cc2Cl)nc1N1CCN(CCN(C)C)CC1
< 100	COc1c(Nc2cc(C)[nH]n2)nc(Sc2ccc(S(=O)(=O)Cc3ccccc3)cc2)nc1N1CCOCC1
< 100	COc1c(Nc2cc(C)[nH]n2)nc(Sc2ccc(S(=O)(=O)Cc3ccccc3)cc2)nc1N1CCN(CCN(C)c2ccccc2)CC1
< 100	CCOc1c(Nc2cc(C)[nH]n2)nc(Sc2ccc(S(=O)(=O)CC)cc2)nc1N1CCN(CCN(C)C)CC1
< 100	COc1c(Nc2cc(C)[nH]n2)nc(Sc2ccc(S(=O)(=O)N(C)C)cc2)nc1N1CCN(CCN(C)C)CC1
< 100	COc1c(Nc2cc(C)[nH]n2)nc(Sc2ccc(NC(=O)C3CC3)cc2)nc1N1CCN(C(=O)CCN(C)C)CC1
< 100	COc1c(Nc2cc(C)[nH]n2)nc(Sc2ccc(NC(C)=O)cc2)nc1N1CCOCC1
< 100	COc1c(Nc2cc(C)[nH]n2)nc(Sc2ccc(S(=O)(=O)Cc3ccccc3)cc2)nc1N1CCN(Cc2ccncc2)CC1
< 100	COc1c(Nc2cc(C)[nH]n2)nc(Sc2ccc(S(=O)(=O)Cc3ccccc3)cc2)nc1N1CCN(CCN2CCCC2)CC1
< 100	CCOc1c(Nc2cc(C)[nH]n2)nc(Sc2ccc(S(=O)(=O)CC)cc2)nc1N1CCNCC1
< 100	COc1c(Nc2cc(C)[nH]n2)nc(Sc2ccc(S(=O)(=O)C(C)(C)c3ccncn3)cc2)nc1N1CCN(CCN(C)C)CC1
< 100	COc1c(Nc2cc(C)[nH]n2)nc(Sc2ccc(S(=O)(=O)Cc3ccccc3)cc2)nc1N1CCN(CCN2CCC2)CC1
< 100	Cc1cc(Nc2nc(Sc3ccccc3)nc(N3CCCCC3)c2C)n[nH]1
